From KR20130112248A, “피라졸로피리미딘 유도체 화합물, 이를 포함하는 산화질소 생성 억제용 조성물 및 뇌신경 질환 예방 및 치료용 약학적 조성물” (한국과학기술연구원, priority 2012, dated 2013)

Test system: NO production in BV-2 cells [NO 생성; BV-2 세포]
Test: Nitric oxide (NO) quantification (nitrite, Griess reaction) in LPS-activated BV-2 cells
Assay type: cell-based
Settings: 20 μM, LPS 0.2 ㎍/mL, 24 h co-treatment, nitrite by Griess at 540 nm, 1440 min

Compound	NO (% of LPS)
COc1cccc(CCn2ncc3c(NCc4ccccc4C)nc(S(C)(=O)=O)nc32)c1 [화합물 23y, N-(2-메틸벤질)-1-(3-메톡시펜에틸)-6-(메틸설포닐)-1H-피라졸로[3,4-d]피리미딘-4-아민]	54±3.5 % of LPS
CCCCNc1nc(NC(C)c2ccccc2)c2cnn(Cc3ccccc3)c2n1 (stereo not drawn) [화합물 24f, 1-벤질-N6-뷰틸-N4-(1-페닐에틸)-1H-피라졸로[3,4-d]피리미딘-4,6-디아민]	9±1 % of LPS

Same assay, conditions: Mus musculus, BV-2, 24 h, 20 μM, LPS 0.2 ㎍/mL, 24 h co-treatment, nitrite by Griess at 540 nm

Compound	activity at 20 µM
COc1cccc(CCn2ncc3c(NCc4ccccc4Cl)nc([S+](C)[O-])nc32)c1 (stereo not drawn) [화합물 22k, N-(2-클로로벤질)-1-(3-메톡시펜에틸)-6-(메틸설파이닐)-1H-피라졸로[3,4-d]피리미딘-4-아민]	58 ± 2%
COc1cccc(CCn2ncc3c(NCc4ccccc4OC)nc([S+](C)[O-])nc32)c1 (stereo not drawn) [화합물 22l, N-(2-메톡시벤질)-1-(3-메톡시펜에틸)-6-(메틸설파이닐)-1H-피라졸로[3,4-d]피리미딘-4-아민]	60 ± 3.3%
COc1cccc(CCn2ncc3c(NCc4ccccc4C)nc(S(C)(=O)=O)nc32)c1 [화합물 22m, N-(2-메틸벤질)-1-(3-메톡시펜에틸)-6-(메틸설포닐)-1H-피라졸로[3,4-d]피리미딘-4-아민]	62 ± 2.8%
CCCCNc1nc(S(C)(=O)=O)nc2c1cnn2-c1ccccc1 [화합물 23a, N-뷰틸-6-(메틸설포닐)-1-페닐-1H-피라졸로[3,4-d]피리미딘-4-아민]	40 ± 7.1%
CS(=O)(=O)c1nc(NCc2ccccc2Cl)c2cnn(-c3ccccc3)c2n1 [화합물 23b, N-(2-클로로벤질)-6-(메틸설포닐)-1-페닐-1H-피라졸로[3,4-d]피리미딘-4-아민]	93 ± 2%
COc1ccccc1CNc1nc(S(C)(=O)=O)nc2c1cnn2-c1ccccc1 [화합물 23c, N-(2-메톡시벤질)-6-(메틸설포닐)-1-페닐-1H-피라졸로[3,4-d]피리미딘-4-아민]	41 ± 2.3%
CS(=O)(=O)c1nc(NC(c2ccccc2)c2ccc(Cl)cc2)c2cnn(-c3ccccc3)c2n1 (stereo not drawn) [화합물 23e, N-((4-클로로페닐)(페닐)메틸)-6-(메틸설포닐)-1-페닐-1H-피라졸로[3,4-d]피리미딘-4-아민]	36 ± 3.6%
CC(Nc1nc(S(C)(=O)=O)nc2c1cnn2-c1ccccc1)C1CCCCC1 (stereo not drawn) [화합물 23f, N-(1-사이클로헥실에틸)-6-(메틸설포닐)-1-페닐-1H-피라졸로[3,4-d]피리미딘-4-아민]	23 ± 0.6%
Cc1ccc(C(C)Nc2nc(S(C)(=O)=O)nc3c2cnn3-c2ccccc2)cc1 (stereo not drawn) [화합물 23g, 6-(메틸설포닐)-1-페닐-N-(1-p-톨릴에틸)-1H-피라졸로[3,4-d]피리미딘-4-아민]	46 ± 3.9%
COc1ccc([C@H](C)Nc2nc(S(C)(=O)=O)nc3c2cnn3-c2ccccc2)cc1 [화합물 23h, N-((S)-1-(4-메톡시페닐)에틸)-6-(메틸설포닐)-1-페닐-1H-피라졸로[3,4-d]피리미딘-4-아민]	41 ± 5.7%
COc1ccccc1CNc1nc(S(C)(=O)=O)nc2c1cnn2-c1ccc(F)cc1 [화합물 23i, N-(2-메톡시벤질)-1-(4-플루오로페닐)-6-(메틸설포닐)-1H-피라졸로[3,4-d]피리미딘-4-아민]	35 ± 7.3%
CS(=O)(=O)c1nc(NCc2ccccc2Cl)c2cnn(-c3ccc(F)cc3)c2n1 [화합물 23j, N-(2-클로로벤질)-1-(4-플루오로페닐)-6-(메틸설포닐)-1H-피라졸로[3,4-d]피리미딘-4-아민]	28 ± 19.3%
Cc1ccccc1CNc1nc(S(C)(=O)=O)nc2c1cnn2-c1ccc(F)cc1 [화합물 23k, N-(2-메틸벤질)-1-(4-플루오로페닐)-6-(메틸설포닐)-1H-피라졸로[3,4-d]피리미딘-4-아민]	35 ± 4.6%
Cc1ccc(-n2ncc3c(NCc4ccccc4Cl)nc(S(C)(=O)=O)nc32)cc1 [화합물 23l, N-(2-클로로벤질)-6-(메틸설포닐)-1-p-톨릴-1H-피라졸로[3,4-d]피리미딘-4-아민]	30 ± 37.4%
COc1ccccc1CNc1nc(S(C)(=O)=O)nc2c1cnn2-c1ccc(C)cc1 [화합물 23m, N-(2-메톡시벤질)-6-(메틸설포닐)-1-p-톨릴-1H-피라졸로[3,4-d]피리미딘-4-아민]	35 ± 3.3%
Cc1ccc(-n2ncc3c(NCc4ccccc4C)nc(S(C)(=O)=O)nc32)cc1 [화합물 23n, N-(2-메틸벤질)-1-(4-메틸페닐)-6-(메틸설포닐)-1-p-톨릴-1H-피라졸로[3,4-d]피리미딘-4-아민]	82 ± 3.1%
COc1ccc(CNc2nc(S(C)(=O)=O)nc3c2cnn3-c2ccc(C)cc2)cc1 [화합물 23o, N-(4-메톡시벤질)-6-(메틸설포닐)-1-p-톨릴-1H-피라졸로[3,4-d]피리미딘-4-아민]	30 ± 2.4%
CC(Nc1nc(S(C)(=O)=O)nc2c1cnn2Cc1ccccc1)c1ccccc1 (stereo not drawn) [화합물 23p, 1-벤질-6-(메틸설포닐)-N-(1-페닐에틸)-1H-피라졸로[3,4-d]피리미딘-4-아민]	40 ± 4.9%
CS(=O)(=O)c1nc(NC(c2ccccc2)c2ccc(Cl)cc2)c2cnn(Cc3ccccc3)c2n1 (stereo not drawn) [화합물 23s, 1-벤질-N-((4-클로로페닐)(페닐)메틸)-6-(메틸설포닐)-N-(1-페닐에틸)-1H-피라졸로[3,4-d]피리미딘-4-아민]	54 ± 2.3%
CC(Nc1nc(S(C)(=O)=O)nc2c1cnn2Cc1ccccc1)C1CCCCC1 (stereo not drawn) [화합물 23t, 1-벤질-N-(1-사이클로헥실에틸)-6-(메틸설포닐)-1H-피라졸로[3,4-d]피리미딘-4-아민]	42 ± 2.6%
Cc1ccc(C(C)Nc2nc(S(C)(=O)=O)nc3c2cnn3Cc2ccccc2)cc1 (stereo not drawn) [화합물 23u, 1-벤질-6-(메틸설포닐)-N-(1-p-톨릴에틸)-1H-피라졸로[3,4-d]피리미딘-4-아민]	120 ± 3.1%
COc1ccc([C@H](C)Nc2nc(S(C)(=O)=O)nc3c2cnn3Cc2ccccc2)cc1 [화합물 23v, 1-벤질-N-((S)-1-(4-메톡시페닐)에틸)-6-(메틸설포닐)-1H-피라졸로[3,4-d]피리미딘-4-아민]	59 ± 3%
COc1cccc(CCn2ncc3c(NCc4ccccc4Cl)nc(S(C)(=O)=O)nc32)c1 [화합물 23w, N-(2-클로로벤질)-1-(3-메톡시펜에틸)-6-(메틸설포닐)-1H-피라졸로[3,4-d]피리미딘-4-아민]	54 ± 2.3%
COc1cccc(CCn2ncc3c(NCc4ccccc4OC)nc(S(C)(=O)=O)nc32)c1 [화합물 23x, N-(2-메톡시벤질)-1-(3-메톡시펜에틸)-6-(메틸설포닐)-1H-피라졸로[3,4-d]피리미딘-4-아민]	35 ± 4.3%
COc1cccc(CNc2nc(S(C)(=O)=O)nc3c2cnn3CCc2ccccc2OC)c1 [화합물 23z, 1-(2-메톡시펜에틸)-N-(3-메톡시벤질)-6-(메틸설포닐)-1H-피라졸로[3,4-d]피리미딘-4-아민]	51 ± 3.5%

Compound	activity at 20 µM
COc1ccc(CNc2nc(S(C)(=O)=O)nc3c2cnn3CCc2ccccc2OC)cc1 [화합물 23za, 1-(2-메톡시펜에틸)-N-(4-메톡시벤질)-6-(메틸설포닐)-1H-피라졸로[3,4-d]피리미딘-4-아민]	56 ± 3.6%
CC(Nc1nc(NCCO)nc2c1cnn2Cc1ccccc1)c1ccccc1 (stereo not drawn) [화합물 24a, 2-(4-(1-페닐에틸아미노)-1-벤질-1H-피라졸로[3,4-d]피리미딘-6-일아미노)에탄올]	78 ± 1.4%
CC(Nc1nc(NCCCO)nc2c1cnn2Cc1ccccc1)c1ccccc1 (stereo not drawn) [화합물 24b, 3-(4-(1-페닐에틸아미노)-1-벤질-1H-피라졸로[3,4-d]피리미딘-6-일아미노)프로판-1-올]	137 ± 5.7%
CC(Nc1nc(NCCCCO)nc2c1cnn2Cc1ccccc1)c1ccccc1 (stereo not drawn) [화합물 24c, 4-(4-(1-페닐에틸아미노)-1-벤질-1H-피라졸로[3,4-d]피리미딘-6-일아미노)부탄-1-올]	123 ± 5.4%
CC(Nc1nc(NCCOCCO)nc2c1cnn2Cc1ccccc1)c1ccccc1 (stereo not drawn) [화합물 24d, 2-(2-(4-(1-페닐에틸아미노)-1-벤질-1H-피라졸로[3,4-d]피리미딘-6-일아미노)에톡시)에탄올]	130 ± 1.8%
CC(Nc1nc(NCc2ccccc2)nc2c1cnn2Cc1ccccc1)c1ccccc1 (stereo not drawn) [화합물 24e, N6,1-디벤질-N4-(1-페닐에틸)-1-벤질-1H-피라졸로[3,4-d]피리미딘-4,6-디아민]	41 ± 16.3%
CC(Nc1nc(N(C)C)nc2c1cnn2Cc1ccccc1)c1ccccc1 (stereo not drawn) [화합물 24g, 1-벤질-N6,N6-디메틸-N4-(1-페닐에틸)-1H-피라졸로[3,4-d]피리미딘-4,6-디아민]	63 ± 2.6%
COCCNc1nc(NC(C)c2ccccc2)c2cnn(Cc3ccccc3)c2n1 (stereo not drawn) [화합물 24h, 1-벤질-N6-(2-메톡시에틸)-N4-(1-페닐에틸)-1H-피라졸로[3,4-d]피리미딘-4,6-디아민]	44 ± 4.2%
C=CCSc1nc(SC)nc2c1cnn2-c1ccccc1 [화합물 25b, 1-페닐-4-알릴티오-6-(메틸티오)피라졸로[3,4-d]피리미딘]	89 ± 6%
CSc1nc(NCc2ccccc2)c2cnn(CCO)c2n1 [화합물 27a, 1-(1-하이드록시에틸)-4-벤질아미노-6-(메틸티오)피라졸로[3,4-d]피리미딘]	77 ± 5%
CSc1nc(NCc2ccc(F)cc2)c2cnn(CCO)c2n1 [화합물 27b, 1-(1-하이드록시에틸)-4-(4-플루오로벤질)벤질아미노-6-(메틸티오)피라졸로[3,4-d]피리미딘]	73 ± 10%
C=CCNc1nc(SC)nc2c1cnn2CCO [화합물 27c, 1-(1-하이드록시에틸)-4-알릴아미노-6-(메틸티오)피라졸로[3,4-d]피리미딘]	98 ± 6%
COc1cccc(CNc2nc(SC)nc3c2cnn3CCO)c1 [화합물 27d, 1-(1-하이드록시에틸)-4-(3-메톡시벤질)아미노-6-(메틸티오)피라졸로[3,4-d]피리미딘]	49 ± 12%
COc1ccc(CNc2nc(SC)nc3c2cnn3CCO)cc1 [화합물 27e, 1-(1-하이드록시에틸)-4-(4-메톡시벤질)아미노-6-(메틸티오)피라졸로[3,4-d]피리미딘]	56 ± 6%
COc1nc(SC)nc2c1cnn2CCO [화합물 27f, 2-(4-메톡시-6-(메틸티오)-1H-피라졸로[3,4-d]피리미딘-1-일)에탄올]	86 ± 3%
CSc1nc(NCc2ccccc2C)c2cnn(CCO)c2n1 [화합물 27g, 2-(4-(2-메틸벤질아미노)-6-(메틸티오)-1H-피라졸로[3,4-d]피리미딘-1-일)에탄올]	82 ± 2.5%
CSc1nc(NCc2ccccc2Cl)c2cnn(CCO)c2n1 [화합물 27h, 2-(4-(2-클로로벤질아미노)-6-(메틸티오)-1H-피라졸로[3,4-d]피리미딘-1-일)에탄올]	87.4 ± 1.2%
COc1ccccc1CNc1nc(SC)nc2c1cnn2CCO [화합물 27i, 2-(4-(2-메톡시벤질아미노)-6-(메틸티오)-1H-피라졸로[3,4-d]피리미딘-1-일)에탄올]	83.5 ± 3.1%
CSc1nc(Cl)c2c(-c3ccccc3)nn(-c3ccccc3)c2n1 [화합물 30a, 1-페닐-3-페닐-4-클로로-6-(메틸티오)피라졸로[3,4-d]피리미딘]	13 ± 18%
CSc1nc(Cl)c2c(-c3ccccc3)nn(Cc3ccccc3)c2n1 [화합물 30b, 1-벤질-3-페닐-4-클로로-6-(메틸티오)피라졸로[3,4-d]피리미딘]	31 ± 19%
CSc1nc(Cl)c2c(-c3ccccc3)nn(C(C)(C)C)c2n1 [화합물 30c, 1-t-뷰틸-3-페닐-4-클로로-6-(메틸티오)피라졸로[3,4-d]피리미딘]	21 ± 22%
CSc1nc(NCc2ccccc2)c2c(-c3ccccc3)nn(-c3ccccc3)c2n1 [화합물 31a, 1-페닐-3-페닐-4-벤질아미노-6-(메틸티오)피라졸로[3,4-d]피리미딘]	68 ± 28%
CSc1nc(NCc2ccc(F)cc2)c2c(-c3ccccc3)nn(-c3ccccc3)c2n1 [화합물 31c, 1-페닐-3-페닐-4-(4-플루오로벤질)아미노-6-(메틸티오)피라졸로[3,4-d]피리미딘]	100 ± 4%
CSc1nc(NCCc2ccccc2)c2c(-c3ccccc3)nn(-c3ccccc3)c2n1 [화합물 31e, 1-페닐-3-페닐-4-(2-페닐에틸)아미노-6-(메틸티오)피라졸로[3,4-d]피리미딘]	105 ± 10%
